Reference: patent publication US20140235630A1, “COMPOSITIONS AND METHODS FOR THE TREATMENT OF PROLIFERATIVE DISEASES” (Beth Israel Deaconess Medical Center, Inc., priority 2011, published 2014)

Tests used:
phospho-AKT (S473) = experiment: AKT phosphorylation in tumor tissue (immunohistochemistry / immunoblot); type: in vivo, mouse; conditions: for AKT phosphorylation in tumor tissue lysates: immunoblot, tumor taken 2-3 hours after last dose, Compound A 30 mg/kg/day, Compound B 50 mg/kg/day
Protocol: All animal experiments were conducted in accordance with IACUC-approved protocols at Beth Israel Deaconess Medical Center, Boston, and at the University of Vall d'Hebron, Barcelona, Spain. Female MMTV-CreBRCA1^f/fp53+/− mice were obtained by breeding BRCA1 conditional knockout mice from the NIH repository (01XC8, strain C57BL/6) (Xu et al. Nat. Genet., 22: 37-43, 1999); with MMTV-Cre (Jackson Laboratory B6129-TgN(MMTV-Cre)4Mam) (Wagner et al. Nucleic Acids Res., 25: 4323-4330, 1997) and p53 knockout (Taconic Farms, P53N12-M, C57BL/6) (Donehower et al. Nature, 356: 215-221, 1992). At the time of the study, mice had been inbred for 4 years (>7 generations). The floxed or wild type status of Brca1, the presence of the MMTV-Cre transgene and the p53 heterozygosity were determined by PCR. Mice were examined for the occurrence of tumors twice weekly. When tumormetrics were performed, the length and width of the tumor was determined using calipers, and the tumor volume was determined (width^2×length/2). Tumor volume was used as a measure of growth and was recorded as ratio to tumor volume at diagnosis. Tumor doubling times were calculated using the functions of the best fit curves for all data points in each treatment modality. 5-(2,6-dimorpholinopyrimidin-4-yl)-4-(trifluoromethyl)pyridin-2-amine (Compound A) was resuspended in 5% Methylcellulose solution (Fluka) and administered via oral gavage at 50 mg/kg/day or 30 mg/kg/day. […]
Cells were treated with mock, 5-(2,6-dimorpholinopyrimidin-4-yl)-4-(trifluoromethyl)pyridin-2-amine (Compound A), 4-[[3-[4-(cyclopropanecarbonyl)piperazine-1-carbonyl]-4-fluorophenyl]methyl]-2H-phthalazin-1-one (Compound B), KU-55933, or the combination and lysed in cell lysis buffer (9803, Cell Signaling) as per the manufacturer's instructions. […] The protein concentration was determined using Bradford reagent (Biorad). […]

[1] = system: patient-derived tumor with BRCA1 germline mutation 2080delA; experiment: Patient-derived BRCA1 2080delA breast tumor xenograft growth; type: in vivo, human; conditions: untreated patient; Compound A 30 mg/kg/day, Compound B 50 mg/kg/day
Description: FIGS. 6G and 6H are graphs showing the relative tumor volume (RTV) over time of tumors from breast cancer tissues from two patients, one with a 185delAG germline mutation (6G) and the other one with a 2080delA germline mutation (6H), propagated as subcutaneous implants in nude mice. Tumors were allowed to grow to a size of 5 mm when mice were randomized to treatments with either vehicle control (squares), Compound A (upside-down triangles), Compound B (triangles), or their combination (diamonds) (n=6 for each cohort, same dosing as in 6F).
All animal experiments were conducted in accordance with IACUC-approved protocols at Beth Israel Deaconess Medical Center, Boston, and at the University of Vall d'Hebron, Barcelona, Spain. […] The floxed or wild type status of Brca1, the presence of the MMTV-Cre transgene and the p53 heterozygosity were determined by PCR. […] When tumormetrics were performed, the length and width of the tumor was determined using calipers, and the tumor volume was determined (width^2×length/2). Tumor volume was used as a measure of growth and was recorded as ratio to tumor volume at diagnosis. Tumor doubling times were calculated using the functions of the best fit curves for all data points in each treatment modality. […]

| Structure (SMILES) | phosphorylation of AKT at Ser-473 in tumors (phospho-AKT (S473); IHC of biopsies before and after two weeks of treatment) | AKT phosphorylation in tumor tissue lysates (phospho-AKT (S473)) | sensitivity of patient-derived tumor (relative tumor volume) [1] |
| --- | --- | --- | --- |
| Nc1cc(C(F)(F)F)c(-c2cc(N3CCOCC3)nc(N3CCOCC3)n2)cn1 [Compound A, 5-(2,6-dimorpholinopyrimidin-4-yl)-4-(trifluoromethyl)pyridin-2-amine] | strongly decreased | potently reduced | exquisite sensitivity |
| O=C(c1cc(Cc2n[nH]c(=O)c3ccccc23)ccc1F)N1CCN(C(=O)C2CC2)CC1 [Compound B, 4-[[3-[4-(cyclopropanecarbonyl)piperazine-1-carbonyl]-4-fluorophenyl]methyl]-2H-phthalazin-1-one, reference compound] | – | induction of AKT phosphorylation | exquisite sensitivity |
